{"source": "patent US6949582B1", "about": "“Method of relieving analgesia and reducing inflamation using a cannabinoid delivery topical liniment” (priority 1999, dated 2005)", "origin": "cited, not measured here", "key": {"[1]": {"settings": "live rats, carriers PEG, Transcutol, PG:EtOH 7:3"}, "[2]": {"system": "peripheral CB1-like and CB2-like receptors", "settings": "in vivo"}, "peripheral CB1 receptor": {"target": "T1, peripheral CB1 receptor (Rattus norvegicus, UniProt P20272)", "T1 construct": "host or cells: rat, peripheral tissue (hindpaw) in vivo", "T1 sequence (P20272 whole entry)": "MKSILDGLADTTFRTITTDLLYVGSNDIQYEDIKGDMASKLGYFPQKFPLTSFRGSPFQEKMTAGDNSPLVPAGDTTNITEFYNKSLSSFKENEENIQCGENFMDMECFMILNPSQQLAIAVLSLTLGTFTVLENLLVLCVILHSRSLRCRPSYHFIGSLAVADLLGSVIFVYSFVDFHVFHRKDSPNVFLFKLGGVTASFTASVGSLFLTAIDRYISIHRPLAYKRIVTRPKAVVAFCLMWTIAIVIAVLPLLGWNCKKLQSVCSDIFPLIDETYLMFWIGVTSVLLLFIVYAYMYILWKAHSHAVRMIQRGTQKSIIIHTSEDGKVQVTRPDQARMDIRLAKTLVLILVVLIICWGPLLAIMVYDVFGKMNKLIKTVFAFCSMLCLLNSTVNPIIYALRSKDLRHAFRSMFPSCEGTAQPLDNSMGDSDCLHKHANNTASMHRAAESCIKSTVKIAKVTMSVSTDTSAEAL"}, "[3]": {"system": "calcitonin gene-related peptide release", "settings": "isolated hindpaw skin"}, "[4]": {"system": "human rheumatoid synovial cells"}, "[5]": {"settings": "mice, given orally"}, "[6]": {"settings": "rat hind-paw edema from carrageenan or PGE-1"}, "[7]": {"system": "interleukin, TNF, cytokine-induced genes", "settings": "carrageenan-induced edema, up-regulation of cytokine-induced genes"}, "cytokines such as TNFα": {"system": "cytokines such as TNFα", "settings": "in vivo"}, "CB2": {"system": "CB2", "settings": "by down-modulating mast cell formation after injury"}, "[8]": {"settings": "in vivo"}, "[9]": {"system": "prostaglandin biosynthesis"}, "[10]": {"settings": "peripheral, but not systemic, administration of 0.01 ng"}}, "data": [{"molecule": "CCCCCc1cc(O)c2c(c1)OC(C)(C)[C@@H]1CC=C(C)C[C@@H]21", "note": "[Delta-8 THC]", "values": [{"measurement": "skin penetration by carrier", "setting": "[1]; after 2 hrs", "value": "highest skin penetration of THC was observed from the Transcutol"}, {"measurement": "concentration in skin layers by carrier", "setting": "[1]; after 24 hours", "value": "the Transcutol system delivered the highest THC concentration to the various layers of the skin"}]}, {"molecule": "SR144528", "values": [{"measurement": "pain behavior produced by chemical damage to cutaneous tissue", "setting": "[2]", "value": "prolong and enhance the pain behavior"}]}, {"molecule": "CCCCC/C=C\\C/C=C\\C/C=C\\C/C=C\\CCCC(=O)NCCO", "note": "[anandamide, arachidonyl-ethanolamide]", "values": [{"measurement": "hyperalgesia after its development", "setting": "peripheral CB1 receptor; peripheral administration, reversed by CB1 antagonist SR 141716A", "value": "attenuated hyperalgesia"}, {"measurement": "edema", "setting": "peripheral CB1 receptor; [10]", "value": "inhibited edema"}, {"measurement": "induction of hyperalgesia", "setting": "peripheral CB1 receptor; [10]", "value": "inhibited the induction of hyperalgesia"}, {"measurement": "capsaicin-evoked release of calcitonin gene-related peptide", "setting": "[3]", "value": "inhibited"}, {"measurement": "pain behavior produced by chemical damage to cutaneous tissue", "setting": "[2]", "value": "attenuates the pain behavior"}]}, {"molecule": "COc1cc(-c2cc(=O)c3c(O)c(C/C=C(\\C)CCC=C(C)C)c(O)cc3o2)ccc1O", "note": "[Cannflavin A]", "values": [{"measurement": "potency of inhibition of prostaglandin E-2 production relative to aspirin", "setting": "[4]", "value": 30, "unit": "times"}]}, {"molecule": "CCCCCCC(C)(C)c1cc(O)c2c(c1)OC(C)(C)[C@@H]1CC=C(C(=O)O)C[C@@H]21", "values": [{"measurement": "acute and chronic inflammatory changes", "setting": "[5]", "value": "supresses acute and chronic inflammatory changes"}]}, {"molecule": "CC1=CCC2CC1C2(C)C", "note": "(stereo not drawn) [Alpha-pinene]", "values": [{"measurement": "anti-inflammatory activity", "setting": "[6]", "value": "demonstrate anti-inflammatory activity"}]}, {"molecule": "CCCCCc1cc(O)c2c(c1)OC(C)(C)[C@@H]1CCC(C)=C[C@@H]21", "note": "[delta-9-tetrahydrocannabinol]", "values": [{"measurement": "analgesic effects compared with codeine", "setting": "double blind controlled cross over study", "value": "analgesic effects equivalent to codeine"}, {"measurement": "analgesia", "setting": "patients with cancer pain, second study", "value": "significant analgesia"}]}, {"molecule": "O=c1cc(-c2ccc(O)cc2)oc2cc(O)cc(O)c12", "note": "[Apigenin]", "values": [{"measurement": "anti-inflammatory actions", "setting": "[7]", "value": "important anti-inflammatory actions"}]}, {"molecule": "CCCCCCC(C)(C)c1cc(O)c2c(c1)OC(C)(C)[C@H]1CC=C(CO)C[C@H]21", "note": "[HU-211]", "values": [{"measurement": "inflammation caused by mobilization of cytokines such as TNFα", "setting": "cytokines such as TNFα", "value": "supress inflammation"}]}, {"molecule": "CCCCCCCCCCCCCCCC(=O)NCCO", "note": "[Palmitoylethanolamide, palmitylethanolamide]", "values": [{"measurement": "carageenan-induced mechanical hyperalgesia and edema", "setting": "CB2", "value": "attenuates"}, {"measurement": "pain behavior produced by chemical damage to cutaneous tissue", "setting": "[2]", "value": "exerts a similar effect"}, {"measurement": "mast-cell activation and inflammatory responses", "setting": "mast-cell activation", "value": "inhibits mast-cell activation and reduces inflammatory responses"}]}, {"molecule": "Cc1c(C(=O)NN2CCCCC2)nn(-c2ccc(Cl)cc2Cl)c1-c1ccc(Cl)cc1", "note": "[SR141716A]", "values": [{"measurement": "pain behavior produced by chemical damage to cutaneous tissue", "setting": "[2]", "value": "prolong and enhance the pain behavior"}]}, {"molecule": "caryophyllene", "values": [{"measurement": "anti-inflammatory activity", "setting": "[6]", "value": "demonstrate anti-inflammatory activity"}]}, {"molecule": "C=C(C)[C@@H]1CCC(C)=C[C@H]1c1c(O)cc(CCCCC)cc1O", "note": "[cannabidiol]", "values": [{"measurement": "reduction of inflammation compared with aspirin", "setting": "[8]", "value": "more effective than aspirin"}, {"measurement": "neuroprotective properties compared with other antioxidants", "setting": "cell culture model", "value": "matched or surpassed other antioxidants"}]}, {"molecule": "COc1cc(-c2cc(=O)c3c(O)c(CC=C(C)C)c(O)cc3o2)ccc1O", "note": "[Cannflavin B]", "values": [{"measurement": "potency of inhibition of prostaglandin E-2 production relative to aspirin", "setting": "[4]", "value": 30, "unit": "times"}]}, {"molecule": "C=CCc1ccc(O)c(OC)c1", "note": "[eugenol]", "values": [{"measurement": "prostaglandin inhibition", "setting": "[9]", "value": "potent"}]}]}
